One test concerns the target T1, NADPH oxidase 1 (Homo sapiens, UniProt Q9Y5S8).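 Also: Cell-based assay with luminescence read-out, IC50 derived from inhibitor dose-response curves; intracellular ROS from endogenous NOX1 in intact HT29 colon cancer cells; potency of inhibitors that lower the ROS luminescence signal.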
T1 sequence (Q9Y5S8 whole entry): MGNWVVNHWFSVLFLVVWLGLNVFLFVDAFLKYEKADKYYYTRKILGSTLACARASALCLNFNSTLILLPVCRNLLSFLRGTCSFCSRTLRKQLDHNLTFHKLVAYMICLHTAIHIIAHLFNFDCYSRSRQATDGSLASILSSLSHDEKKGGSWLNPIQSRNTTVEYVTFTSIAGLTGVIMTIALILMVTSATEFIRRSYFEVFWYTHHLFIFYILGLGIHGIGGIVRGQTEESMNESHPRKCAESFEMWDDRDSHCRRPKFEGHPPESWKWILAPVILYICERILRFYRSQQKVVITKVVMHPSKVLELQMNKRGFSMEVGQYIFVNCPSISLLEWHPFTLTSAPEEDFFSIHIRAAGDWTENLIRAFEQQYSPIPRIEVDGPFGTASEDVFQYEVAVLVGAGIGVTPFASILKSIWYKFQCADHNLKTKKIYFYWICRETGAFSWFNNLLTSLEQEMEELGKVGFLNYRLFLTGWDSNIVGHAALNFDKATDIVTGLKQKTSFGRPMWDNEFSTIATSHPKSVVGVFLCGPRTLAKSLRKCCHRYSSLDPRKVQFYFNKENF
Type of test: functional, cell-based.

The nature of test [1]: Luminescence Cell-Based Dose Response to Identify Activators of 5'UTR Stem-Loop Driven Prion Protein mRNA Translation in H4-C Neuroglioblastoma Cells. [Related pubchem assays: 1829 (Project Summary), 1814 (Primary HTS)]. It counts as functional.
The nature of test [2]: Luminescence Cell-Based Dose Response HTS to Identify Activators of Luciferase Translation or Activity in H4 […] Cells. [Related pubchem assays: 1829 (Project Summary), 1814 (Primary HTS)]. Type of test: functional.
A short description of test [3]: Luminescence Cell-Based Dose Response to Identify Activators of Luciferase Translation or Activity in H4-C Neuroglioblastoma Cells. [Related pubchem assays: 1829 (Project Summary), 1814 (Primary HTS)]. It counts as functional.
Test [4] is described as follows: Luminescence Cell-Based Dose Confirmation to Identify Activators of 5'UTR Stem-Loop Driven Alpha-Synuclein mRNA Translation in H4 Neuroglioblastoma Cells. [Related pubchem assays: 1829 (Project Summary), 1814 (Primary HTS)]. Type of test: functional.
Test [5] in a line: inhibitors of intracellular T. cruzi replication, confirmation, NIH3T3 host cells, beta-gal luminescence (AID 2044).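 Also: intracellular parasites grown in NIH/3T3 mouse fibroblasts as host cells; luminescent beta-galactosidase reporter signal from transgenic T. cruzi replicating inside host cells; inhibitors lower the luminescence signal.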 It counts as functional, cell-based.
The nature of test [6]: cytotoxicity toward NIH3T3 fibroblasts, dose response, counter-screen, cell-based, ATP luminescence, mouse fibroblasts (AID 2010).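 Also: cells exposed to compound for about 90 hours before reading.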 It counts as functional. Background: A counterscreen serves to expose hits that act by an unwanted route or on another target.
For test [7], the target named is T2, RNA-binding protein pos-1 (Caenorhabditis elegans, UniProt G5EF15).
T2 sequence (G5EF15 whole entry): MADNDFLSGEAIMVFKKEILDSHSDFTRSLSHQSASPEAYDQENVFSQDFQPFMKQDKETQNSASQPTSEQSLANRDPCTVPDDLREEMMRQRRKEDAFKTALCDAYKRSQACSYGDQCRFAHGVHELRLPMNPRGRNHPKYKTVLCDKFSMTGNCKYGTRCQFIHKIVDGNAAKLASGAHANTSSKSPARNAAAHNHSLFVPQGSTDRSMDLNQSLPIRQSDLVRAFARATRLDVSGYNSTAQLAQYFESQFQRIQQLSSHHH
Kind of test: inhibitors of POS-1/mex-3 RNA binding, dose response, biochemical, fluorescence polarization (AID 1964).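 Also: purified POS-1 fused to maltose binding protein made in E. coli; potency of compounds blocking POS-1 binding to fluorescent RNA.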

The target of test [8] is Guanyl-specific ribonuclease T1 (Aspergillus oryzae (strain ATCC 42149 / RIB 40), UniProt P00651). Kind of test: RNase T1 inhibitors, dose response, counter-screen for TPT1 inhibitor project, biochemical, fluorescence polarization, 1536-well (AID 2167).
Sequence of Guanyl-specific ribonuclease T1 (P00651 whole entry): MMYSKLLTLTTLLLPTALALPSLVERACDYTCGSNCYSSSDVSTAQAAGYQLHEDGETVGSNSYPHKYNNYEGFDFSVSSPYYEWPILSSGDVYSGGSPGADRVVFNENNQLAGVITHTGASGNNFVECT
Test [9] addresses T3, Zinc finger protein mex-5 (Caenorhabditis elegans, UniProt Q9XUB2).
T3 sequence (Q9XUB2 whole entry): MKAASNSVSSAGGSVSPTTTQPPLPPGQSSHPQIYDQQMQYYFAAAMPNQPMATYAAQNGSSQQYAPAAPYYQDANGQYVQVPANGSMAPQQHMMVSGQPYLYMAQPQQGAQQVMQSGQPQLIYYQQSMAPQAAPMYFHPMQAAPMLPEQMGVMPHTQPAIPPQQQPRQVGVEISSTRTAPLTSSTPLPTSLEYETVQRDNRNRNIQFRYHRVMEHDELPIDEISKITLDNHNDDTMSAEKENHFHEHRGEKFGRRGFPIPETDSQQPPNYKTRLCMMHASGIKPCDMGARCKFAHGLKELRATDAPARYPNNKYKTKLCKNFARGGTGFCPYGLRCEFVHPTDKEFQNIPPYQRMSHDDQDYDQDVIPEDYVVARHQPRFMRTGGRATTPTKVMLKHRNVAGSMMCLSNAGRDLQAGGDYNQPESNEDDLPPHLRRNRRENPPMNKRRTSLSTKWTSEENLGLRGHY
Kind of test: MEX-5/TCR-2 RNA interaction inhibitors, dose response, biochemical, C. elegans, fluorescence polarization (AID 1960).

Test [10] deals with Likely tRNA 2'-phosphotransferase (Candida albicans (strain SC5314 / ATCC MYA-2876) (Yeast), UniProt Q5A7N4). Kind of test: TPT1 tRNA phosphotransferase inhibitors, dose response, biochemical, fluorescence polarization (AID 2160).
Sequence of Likely tRNA 2'-phosphotransferase (Q5A7N4 whole entry): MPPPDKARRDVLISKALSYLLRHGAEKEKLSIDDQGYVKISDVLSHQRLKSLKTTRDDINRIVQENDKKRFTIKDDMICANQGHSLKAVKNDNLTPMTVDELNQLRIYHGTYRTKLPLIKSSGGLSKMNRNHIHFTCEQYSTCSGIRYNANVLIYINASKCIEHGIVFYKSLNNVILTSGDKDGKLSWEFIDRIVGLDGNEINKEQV
The target in the next test is Ephrin type-A receptor 4 (Mus musculus, UniProt Q03137). Kind of test: inhibitors of EphA4 binding to KYL peptide, primary screen, biochemical, colorimetric, mouse EphA4 (AID 689). Type of test: functional.
Sequence of Ephrin type-A receptor 4 (Q03137 whole entry): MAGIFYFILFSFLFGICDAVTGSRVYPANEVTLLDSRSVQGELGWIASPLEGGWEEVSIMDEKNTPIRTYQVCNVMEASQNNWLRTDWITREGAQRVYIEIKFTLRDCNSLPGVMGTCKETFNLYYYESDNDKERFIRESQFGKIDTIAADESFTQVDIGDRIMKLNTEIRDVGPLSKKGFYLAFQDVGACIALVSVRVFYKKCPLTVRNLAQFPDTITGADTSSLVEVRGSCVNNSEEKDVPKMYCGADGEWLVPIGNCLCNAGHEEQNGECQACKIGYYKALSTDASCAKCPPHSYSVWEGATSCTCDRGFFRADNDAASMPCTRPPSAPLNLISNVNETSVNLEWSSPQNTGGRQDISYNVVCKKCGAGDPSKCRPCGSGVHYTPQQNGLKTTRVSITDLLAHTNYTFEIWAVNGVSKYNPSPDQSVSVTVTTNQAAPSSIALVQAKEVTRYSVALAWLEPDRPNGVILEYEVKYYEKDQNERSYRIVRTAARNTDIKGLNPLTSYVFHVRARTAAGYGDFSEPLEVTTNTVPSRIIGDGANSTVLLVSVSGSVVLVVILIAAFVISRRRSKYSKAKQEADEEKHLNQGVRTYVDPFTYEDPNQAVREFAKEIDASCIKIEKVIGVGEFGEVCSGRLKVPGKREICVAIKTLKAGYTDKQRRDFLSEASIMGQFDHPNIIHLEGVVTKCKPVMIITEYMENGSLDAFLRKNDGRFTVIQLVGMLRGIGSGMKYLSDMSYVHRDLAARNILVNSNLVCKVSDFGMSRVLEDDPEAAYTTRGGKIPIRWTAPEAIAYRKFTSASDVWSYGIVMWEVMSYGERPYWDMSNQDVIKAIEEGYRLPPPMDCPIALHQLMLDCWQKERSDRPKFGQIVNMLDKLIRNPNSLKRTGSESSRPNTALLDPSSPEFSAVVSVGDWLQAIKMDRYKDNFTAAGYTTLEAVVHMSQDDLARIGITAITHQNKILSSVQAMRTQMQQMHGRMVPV
Test [11] is described as follows: Luminescence Cell-Based Dose Confirmation HTS to Identify Activators of 5'UTR Stem-Loop Driven Alpha-Synuclein mRNA Translation in H4 Neuroglioblastoma Cells. [Related pubchem assays: 1829 (Project Summary), 1814 (Primary HTS)]. It counts as functional.
Another test concerns H4. Kind of test: Luminescence Cell-Based Dose Response HTS to Identify Activators of 5'UTR Stem-Loop Driven Prion Protein mRNA Translation in H4 Neuroglioblastoma Cells. [Related pubchem assays: 1829 (Project Summary), 1814 (Primary HTS)]. Type of test: functional. Conditions: Homo sapiens.
Test [12] has as its target E3 ubiquitin-protein ligase Mdm2 (Homo sapiens, UniProt Q00987). Put plainly: enhancers of MDM2-luciferase reporter signal, concentration-effect titration, project on inhibitors of MDM2 ubiquitin ligase, cellular assay, luminescent readout, 384-well plate format (AID 1394).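 Also: MDM2 E3 inhibitors raise luminescence so EC50 is for signal enhancement.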 Type of test: functional. On the technique in general: In a reporter assay the amount or activity of a reporter protein is the signal.

Test [13] has as its target T4, Ubiquitin-conjugating enzyme E2 N (Homo sapiens, UniProt P61088).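 Also: Dose-response confirmation in a TR-FRET assay detecting UBC13-driven polyubiquitin chain formation, inhibition measured.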
T4 sequence (P61088 whole entry): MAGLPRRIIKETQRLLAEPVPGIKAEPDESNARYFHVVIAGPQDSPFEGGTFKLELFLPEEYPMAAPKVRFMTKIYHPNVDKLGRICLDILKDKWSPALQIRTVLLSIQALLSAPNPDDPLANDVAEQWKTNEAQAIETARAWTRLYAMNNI
It counts as functional.

Test [14] addresses T5, Short transient receptor potential channel 4 (Mus musculus, UniProt Q9QUQ5).
T5 sequence (Q9QUQ5 whole entry): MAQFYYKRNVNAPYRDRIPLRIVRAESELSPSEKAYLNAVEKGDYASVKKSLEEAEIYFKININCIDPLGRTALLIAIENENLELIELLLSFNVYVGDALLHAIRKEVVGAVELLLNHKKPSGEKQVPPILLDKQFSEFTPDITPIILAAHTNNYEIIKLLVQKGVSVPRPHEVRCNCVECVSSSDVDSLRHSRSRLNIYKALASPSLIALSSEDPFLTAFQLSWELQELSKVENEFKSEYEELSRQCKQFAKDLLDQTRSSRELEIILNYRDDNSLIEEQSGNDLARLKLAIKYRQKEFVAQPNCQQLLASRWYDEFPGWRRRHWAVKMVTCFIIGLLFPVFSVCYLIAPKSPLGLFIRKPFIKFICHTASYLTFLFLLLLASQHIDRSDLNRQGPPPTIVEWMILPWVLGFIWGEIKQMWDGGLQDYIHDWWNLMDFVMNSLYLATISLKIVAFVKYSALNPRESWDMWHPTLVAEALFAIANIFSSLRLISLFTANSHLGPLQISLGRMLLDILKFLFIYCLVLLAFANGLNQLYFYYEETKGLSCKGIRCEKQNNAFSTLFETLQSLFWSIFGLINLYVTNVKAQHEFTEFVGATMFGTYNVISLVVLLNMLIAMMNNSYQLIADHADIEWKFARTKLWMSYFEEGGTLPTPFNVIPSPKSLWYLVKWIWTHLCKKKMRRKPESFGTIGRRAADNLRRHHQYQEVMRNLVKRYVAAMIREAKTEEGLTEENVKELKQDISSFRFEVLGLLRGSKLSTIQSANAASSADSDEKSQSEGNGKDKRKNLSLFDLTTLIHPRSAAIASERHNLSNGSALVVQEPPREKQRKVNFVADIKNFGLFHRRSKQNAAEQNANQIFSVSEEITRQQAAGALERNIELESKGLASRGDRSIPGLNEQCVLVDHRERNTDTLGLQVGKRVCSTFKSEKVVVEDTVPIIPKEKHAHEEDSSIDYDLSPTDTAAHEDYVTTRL
Kind of test: mouse TRPC4 channel activators, dose response, cell-based, HEK293 TRPC4/mu-opioid, Fluo-4 calcium (AID 434937). Type of test: functional.

For test [15], the target named is T6, Estrogen receptor beta (Homo sapiens, UniProt Q92731).
T6 sequence (Q92731 whole entry): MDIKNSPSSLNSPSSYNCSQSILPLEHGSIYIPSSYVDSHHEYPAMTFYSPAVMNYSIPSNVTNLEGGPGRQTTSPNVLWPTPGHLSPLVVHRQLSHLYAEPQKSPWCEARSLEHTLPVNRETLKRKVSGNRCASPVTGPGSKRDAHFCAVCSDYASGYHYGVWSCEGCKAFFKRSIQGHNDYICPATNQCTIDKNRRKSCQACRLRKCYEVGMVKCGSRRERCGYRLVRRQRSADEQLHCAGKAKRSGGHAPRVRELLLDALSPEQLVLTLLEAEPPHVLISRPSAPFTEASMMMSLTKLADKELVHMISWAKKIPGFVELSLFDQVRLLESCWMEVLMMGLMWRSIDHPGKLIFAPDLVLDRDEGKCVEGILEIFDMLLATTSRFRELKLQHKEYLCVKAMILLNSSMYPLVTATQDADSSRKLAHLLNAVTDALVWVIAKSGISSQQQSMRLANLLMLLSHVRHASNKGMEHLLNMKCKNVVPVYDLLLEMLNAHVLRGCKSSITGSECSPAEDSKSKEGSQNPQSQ
Test [16] has as its target T6, Estrogen receptor beta. Put plainly: ERβ–SRC-3 coactivator interaction inhibitors, confirmation, orthogonal assay, biochemical, ELISA, streptavidin-HRP readout (AID 1060). On the technique in general: In an ELISA, binding on a coated surface is turned into a signal by an enzyme label.
For a further test, the target named is T7, Protein skinhead-1 (Caenorhabditis elegans, UniProt P34707).
T7 sequence (P34707 whole entry): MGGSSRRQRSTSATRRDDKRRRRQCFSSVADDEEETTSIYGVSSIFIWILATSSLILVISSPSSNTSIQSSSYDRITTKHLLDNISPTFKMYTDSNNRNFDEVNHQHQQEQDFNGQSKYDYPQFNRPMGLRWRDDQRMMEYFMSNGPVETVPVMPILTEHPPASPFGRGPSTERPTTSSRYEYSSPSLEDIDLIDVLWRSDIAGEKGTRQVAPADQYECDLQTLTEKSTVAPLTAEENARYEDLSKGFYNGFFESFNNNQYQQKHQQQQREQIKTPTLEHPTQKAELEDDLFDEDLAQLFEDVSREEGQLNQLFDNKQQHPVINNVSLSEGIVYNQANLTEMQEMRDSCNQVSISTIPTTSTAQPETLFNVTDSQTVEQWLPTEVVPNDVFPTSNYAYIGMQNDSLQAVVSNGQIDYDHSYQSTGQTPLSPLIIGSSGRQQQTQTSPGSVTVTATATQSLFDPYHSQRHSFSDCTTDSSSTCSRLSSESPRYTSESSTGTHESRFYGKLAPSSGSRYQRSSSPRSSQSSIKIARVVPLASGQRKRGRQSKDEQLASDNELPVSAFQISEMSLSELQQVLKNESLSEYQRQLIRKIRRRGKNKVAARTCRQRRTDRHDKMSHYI
Type of test: functional.

Calls of active or inactive are those of the source.

Sequence of E3 ubiquitin-protein ligase Mdm2 (Q00987 whole entry): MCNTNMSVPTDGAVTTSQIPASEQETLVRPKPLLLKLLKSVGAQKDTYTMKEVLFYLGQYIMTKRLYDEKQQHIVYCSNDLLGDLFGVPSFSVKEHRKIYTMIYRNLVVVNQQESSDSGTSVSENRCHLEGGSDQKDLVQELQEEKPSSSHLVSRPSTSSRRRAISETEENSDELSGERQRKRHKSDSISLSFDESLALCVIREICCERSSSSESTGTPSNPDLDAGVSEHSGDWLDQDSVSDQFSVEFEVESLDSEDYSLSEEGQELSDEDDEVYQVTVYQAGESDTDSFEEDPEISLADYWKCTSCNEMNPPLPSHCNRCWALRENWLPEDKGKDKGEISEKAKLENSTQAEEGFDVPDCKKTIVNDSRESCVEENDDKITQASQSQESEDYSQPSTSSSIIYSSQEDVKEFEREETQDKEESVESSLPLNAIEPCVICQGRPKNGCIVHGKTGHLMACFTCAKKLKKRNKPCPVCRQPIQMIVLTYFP

The term IC50 denotes the concentration needed to halve the response being measured. For the molecule `O=[N+]([O-])c1ccc2c(c1)Sc1ccc(C(F)(F)F)cc1N2`, on NADPH oxidase 1, the IC50 is 1410 nM (active).

One may read the EC50 as the concentration at which the effect is half-maximal. Turning to `Cc1cc(=O)oc2cc(NC(=O)c3ccccc3Cl)ccc12`, the EC50 was 345 nM (active) in [1], < 100 nM (active) in [2], 364 nM (active) in test [3] and 208 nM (active) in [4].

Regarding `O=C(CCC1CCCN(Cc2cccc3c2OCO3)C1)NCc1ccc(F)c(F)c1` (stereo unspecified), the EC50 in test [5] was < 100 nM (active); in test [6], > 60000 nM (not active); in “cells” it was 216 nM (active).

For `Cc1nn(C(C)C)c(C)c1CN1CCCC(CCC(=O)NCc2ccccc2F)C1` (stereo unspecified), the EC50 in test [5] was < 100 nM (active); in test [6], > 60000 nM (not active); in the test “cells”, < 4 nM (active).

As to `CCOc1cc(/C=C2\C(=O)NC(=O)N(CCc3ccc(F)cc3)C2=O)ccc1O`, the EC50 in test [7] and in test [9] was > 300000 nM (not active) throughout. In addition, the results for the IC50 in test [8] and in test [10] were 28000 nM (not active) and > 55700 nM (not active), respectively.

Regarding `O=[N+]([O-])c1ccc(N2N=C(c3ccco3)CC2c2ccccc2)cc1` (stereo unspecified), the IC50 on Ephrin type-A receptor 4 was > 100000 nM (not active).

Take `COc1ccc(/C=N/NC(=O)c2ccc[nH]2)cc1`: the EC50 is 460 nM (active) in [1]; 155 nM (active) in test [11]; 114 nM (active) in test [2]; < 100 nM (active) in the test on H4; 324 nM (active) in test [3]; 343 nM (active) in test [4].

For the molecule `CC(C)n1cnc2c(N(C)c3ccccc3)nc(N(CCN(C)C)Cc3ccccc3)nc21`, the EC50 is 19300 nM (not active) in test [12] and 10600 nM (active) in test [14]. Moreover, in test [13], the IC50 was > 20000 nM (inactive).

Take `Nc1c(C(=O)Nc2ccc(F)cc2)sc2nc(-c3ccco3)ccc12`: the 50% inhibitory concentration (IC50) against Estrogen receptor beta [15] is > 50000 nM (not active); against Estrogen receptor beta [16], > 50000 nM (not active); at Protein skinhead-1, > 100000 nM (inactive).

On to `Cc1c(NC(=S)N/N=C/c2cccc(O)c2)c(=O)n(-c2ccccc2)n1C`, for which the IC50 at Ephrin type-A receptor 4 was 39500 nM (active).

Turning to `COc1ccc(C2CC(=O)Nc3ccccc3S2(=O)=O)cc1OC` (stereo unspecified), the figures for the IC50 on Estrogen receptor beta [15] and against Estrogen receptor beta [16] were 16100 nM (active) and < 23 nM (not active), respectively.

For the origin of these results see ChEMBL document CHEMBL1201862, “PubChem BioAssay data set” (2004).
